# Assay results published in patent US20170172955A1, “Treatment of Mixed Dyslipidemia” (priority 2015, published 2017).
# Like-named read-outs stand apart in the source and are kept apart here.
# How the values were obtained:
# [1] = tested on: cholesterol and triglyceride synthesis; assay: Inhibition of plasma and hepatic cholesterol and triglyceride synthesis in apoB100/Lp(a) mice; format: in vivo, mouse
# Experimental: The apoB100/Lp(a) (cross of mice transgenic for human apoB100 and human apo(a)) mice) were obtained from Charles River. There were 8 animals per treatment group. […] Mice were acclimated for a minimum of 7 days to a reverse 12 hour light/12 hour dark cycle prior to administration of the first dose of test drug or vehicle. […] Test drugs and vehicle were given once daily. Thirty minutes after the eighth dose, 12.5 μCi [^14C] sodium acetate was administered. […] Individual plasma samples were acquired by placing whole blood samples into EDTA loaded centrifuge tubes and centrifuged. Plasma was transferred to new tubes and stored at −20° C. until assayed for [^14C] labeled cholesterol. Liver samples were flash frozen in liquid nitrogen and stored at −80° C. until assayed for [^14C] labeled cholesterol and triglycerides. Assay for plasma [^14C] labeled cholesterol. […] Additionally, 0.025 μCi […] (Perkin Elmer Life Sciences Inc. Boston, Mass.) was added to each sample, and to 2 or 3 spike controls in 7-mL scintillation vials, as an extraction internal standard. […] Samples were vortexed and saponified at 75° C. for 1 hour. After the samples cooled […] [^14C] labeled cholesterol was extracted with 2.5 mL petroleum ether per sample and shaken for 10 minutes, and then centrifuged for 10 minutes at 0° C. […] Each sample was then dissolved in 0.25 mL of 2 parts chloroform to 1 part per methanol by sonication. Five mL scintillant was added to each sample and the spike controls for direct [^3H] and [^14C] […] per minute (DPM) recording using a Packard 2500TR Tri-Carb Liquid Scintillation Analyzer. […] Assay for liver [^14C] labeled cholesterol and triglycerides. Frozen liver samples were kept on dry ice during sample weighing procedures and assay preparations. Each sample was homogenized in a solution of ice-cold methanol;0.5 N acetic acid. […] Samples were then vortexed and centrifuged for 20 minutes at 3000 rpm at room temperature to separate the phases. The lower chloroform layer was transferred to new vials. The remaining upper aqueous phase was extracted in like manner with 15 mL chloroform 2 more times. […] The aqueous phase was discarded and the chloroform phase was washed 2 times in like manner with 15 mL 1 part methanol to 1 part water, discarding the aqueous phase. The chloroform samples were evaporated under nitrogen gas, and resuspended in 600 μL chloroform and 30 μL removed for scintillation counting. Sample volumes were adjusted for corrected percent recovery and a calculated volume to load based on total liver weight. Calculated volumes were spotted onto TLC plates and dried in an 80° C. oven. After the plates had cooled to room temperature, they were developed in 102 mL isooctane:diethyl ether:glacial acetic acid, 75:25:2, respectively. Plates were dried in an 80° C. oven and allowed to cool to room temperature, wrapped in plastic wrap, and exposed to the phosphorimager screen. Imagequant software was used to quantitate cholesterol and triglyceride bands.
# CYP2E1 = CYP2E1 (Homo sapiens, UniProt P05181); assay: biochemical
# Sequence of CYP2E1 (P05181 whole entry, canonical isoform): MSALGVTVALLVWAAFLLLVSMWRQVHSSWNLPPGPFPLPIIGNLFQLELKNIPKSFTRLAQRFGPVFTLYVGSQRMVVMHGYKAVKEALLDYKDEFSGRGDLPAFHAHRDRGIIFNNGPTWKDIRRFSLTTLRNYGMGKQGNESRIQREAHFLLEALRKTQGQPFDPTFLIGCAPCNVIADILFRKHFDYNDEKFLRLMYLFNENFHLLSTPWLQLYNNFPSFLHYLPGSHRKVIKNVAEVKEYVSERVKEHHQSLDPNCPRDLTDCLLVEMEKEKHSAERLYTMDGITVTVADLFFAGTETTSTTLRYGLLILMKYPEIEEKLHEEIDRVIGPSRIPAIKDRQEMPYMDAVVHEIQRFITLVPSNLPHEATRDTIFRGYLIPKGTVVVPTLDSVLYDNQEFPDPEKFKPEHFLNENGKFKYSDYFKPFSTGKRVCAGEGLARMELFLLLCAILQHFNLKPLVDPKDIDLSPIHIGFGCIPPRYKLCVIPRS
# Experimental: (§1) Human livers, HLM141, HLM143, and HLM144 were selected from the University of Washington Human Liver Bank for this study. […] The actual concentrations used for each of the other probes are specified below. […] The seven isoforms and the metabolic pathway of each of the probes used to monitor specific isoform activity are listed below.
# CYP2E1: The formation of p-nitrocatechol from p-nitrophenol (40 μM). Amounts of product formed are monitored by HPLC.
# fibrinogen = assay: Fibrinogen levels in humans, post hoc analysis of study A4141001; format: in vivo, human; parameters: Mean Final FIBR / Mean Change FIBR: unit not given here; details: for Change in Fibrinogen, Difference (Gem - Placebo): MITT; for Fibrinogen Change, Difference (Gem-placebo) / Mean % Change FIBR / Mean Change FIBR / Mean Final FIBR / Fibrinogen Change, LS Mean (SE): subjects with fibrinogen baseline >400 mg/dL
# Experimental: Week 0) and the end (Visit T8, Week 8). Analyses of covariance (ANCOVA) methods used in the original study A4141001 were again utilized in these analyses. For fibrinogen, baseline was defined as the last pretreatment visit, and endpoint was the last visit up to and including the day after last dose of medication. The least-squares means and p-values for change from baseline in fibrinogen were calculated using an ANCOVA model with the effects of baseline lipid value and treatment. Also, medians and p-values for percent change from baseline. […] This, consequently, was the definition for the modified intent-to treat (MITT) population.
# plasma fibrinogen = assay: Fibrinogen levels in rats (electro immunoassay); format: in vivo, rat; details: male Sprague-Dawley rats
# Experimental: Fifty-Six male Sprague-Dawley rats were obtained from Charles River Laboratories. All animals were allowed normal rat chow (Ralston-Purina) and water ad libitum in temperature-controlled rooms, under a 12-hour light, 12-hour dark cycle beginning with lights on at 6 AM. Rats were distributed to 7 groups of 8 rats per group. […] Control animals received vehicle alone. […] CI-719 is gemfibrozil. […] The plasma fibrinogen plasma levels were determined by electro immunoassay. […] Data are shown in FIG. 12 as mean±SEM of as percent of control fibrinogen levels. *p<0.001, two-sided unpaired t-test, compared to control.
# CYP3A4 = CYP3A4 (Homo sapiens, UniProt P08684); assay: biochemical
# Sequence of CYP3A4 (P08684 whole entry): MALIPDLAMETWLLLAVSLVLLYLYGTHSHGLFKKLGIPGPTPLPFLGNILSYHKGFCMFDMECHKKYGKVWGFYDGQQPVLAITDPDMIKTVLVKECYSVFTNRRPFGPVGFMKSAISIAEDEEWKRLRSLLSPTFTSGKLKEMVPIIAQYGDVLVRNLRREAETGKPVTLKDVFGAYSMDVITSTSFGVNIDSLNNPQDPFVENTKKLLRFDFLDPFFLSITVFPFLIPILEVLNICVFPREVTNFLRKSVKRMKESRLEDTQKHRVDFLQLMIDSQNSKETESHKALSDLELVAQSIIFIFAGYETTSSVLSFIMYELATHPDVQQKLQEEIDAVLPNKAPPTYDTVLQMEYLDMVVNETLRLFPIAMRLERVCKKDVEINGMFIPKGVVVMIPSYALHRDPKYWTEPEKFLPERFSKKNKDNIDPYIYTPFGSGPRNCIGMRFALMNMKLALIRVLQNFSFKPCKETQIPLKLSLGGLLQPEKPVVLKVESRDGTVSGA
# Experimental: as §1
# CYP3A4: The 10-hydroxylation of (R)-warfarin (0.5 mM). The reaction is monitored by quantitative GC/MS using 10-hydroxywarfarin-(d5-phenyl) as the internal standard.
# CYP2C19 = CYP2C19 (Homo sapiens, UniProt P33261); assay: biochemical
# Sequence of CYP2C19 (P33261 whole entry): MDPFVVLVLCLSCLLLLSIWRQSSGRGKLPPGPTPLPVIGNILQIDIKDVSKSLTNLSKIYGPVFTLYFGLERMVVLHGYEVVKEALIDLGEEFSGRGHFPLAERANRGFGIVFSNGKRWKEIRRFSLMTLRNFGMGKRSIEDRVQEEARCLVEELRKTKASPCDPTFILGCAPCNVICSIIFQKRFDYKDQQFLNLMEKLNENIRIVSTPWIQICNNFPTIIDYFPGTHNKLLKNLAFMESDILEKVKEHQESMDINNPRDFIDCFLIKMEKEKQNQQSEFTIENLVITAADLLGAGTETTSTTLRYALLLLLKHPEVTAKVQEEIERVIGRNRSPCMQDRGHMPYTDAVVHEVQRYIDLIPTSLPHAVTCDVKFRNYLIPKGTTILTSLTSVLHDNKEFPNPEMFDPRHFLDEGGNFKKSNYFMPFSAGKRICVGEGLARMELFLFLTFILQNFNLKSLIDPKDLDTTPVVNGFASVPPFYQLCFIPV
# Experimental: as §1
# CYP2C19: The 4′-hydroxylation of (S)-mephenytoin (50 μM). The reaction is monitored by quantitative GC/MS using mephenytoin-(d3-methyl) as the internal standard.
# [2] = 100 mg/kg oral once daily, 8 doses
smiles,measurement,setting,value
"CC(C)(CCCCOCCCCC(C)(C)C(=O)O)C(=O)O [Gemcabene, 6,6′-oxybis(2,2-dimethylhexanoic acid)]",inhibition of cholesterol synthesis as measured in plasma,[1]; 100 mg/kg,60%
same,inhibition of newly synthesized cholesterol in liver tissue,[1]; 100 mg/kg,65%
same,inhibition of newly synthesized triglycerides in liver tissue,[1]; 100 mg/kg,66%
same,"hepatic Cholesterol synthesis ([14C] sodium acetate), % Change from Vehicle",[1]; [2],−65 ± 11 %
same,"hepatic Triglycerides synthesis ([14C] sodium acetate), % Change from Vehicle",[1]; [2],−66 ± 6 %
same,IC50,CYP2E1,> 1500 µM
same,activity slightly enhanced,"CYP2E1; human, 1500 μM",about 20%
same,IC50,"CYP2E1; human, microsomes",> 1500 µM
same,"Change in Fibrinogen, Difference (Gem - Placebo)",fibrinogen; gemcabene 300 mg,−13.0
same,"Change in Fibrinogen, Difference (Gem - Placebo)",fibrinogen; gemcabene 600 mg,−13.6
same,"Change in Fibrinogen, Difference (Gem - Placebo)",fibrinogen; gemcabene 900 mg,−24.3
same,"Fibrinogen Change, Difference (Gem-placebo)",fibrinogen; gemcabene 300 mg,5.0
same,Mean % Change FIBR,fibrinogen; gemcabene 300 mg,6.7%
same,Mean Change FIBR,fibrinogen; gemcabene 300 mg,26.6
same,Mean Final FIBR,fibrinogen; gemcabene 300 mg,454.4
same,"Fibrinogen Change, LS Mean (SE)",fibrinogen; gemcabene 300 mg monotherapy,26.0 (29.3)
same,"Fibrinogen Change, Difference (Gem-placebo)",fibrinogen; gemcabene 600 mg,−62.5
same,Mean % Change FIBR,fibrinogen; gemcabene 600 mg,−9.3%
same,Mean Change FIBR,fibrinogen; gemcabene 600 mg,−41.4
same,Mean Final FIBR,fibrinogen; gemcabene 600 mg,411.0
same,"Fibrinogen Change, LS Mean (SE)",fibrinogen; gemcabene 600 mg monotherapy,−41.5 (28.9)
same,"Fibrinogen Change, Difference (Gem-placebo)",fibrinogen; gemcabene 900 mg,−34.0
same,Mean % Change FIBR,fibrinogen; gemcabene 900 mg,−3.2%
same,Mean Change FIBR,fibrinogen; gemcabene 900 mg,−12.9
same,Mean Final FIBR,fibrinogen; gemcabene 900 mg,435.9
same,"Fibrinogen Change, LS Mean (SE)",fibrinogen; gemcabene 900 mg monotherapy,−13.0 (22.9)
same,Mean % Change FIBR,fibrinogen; gemcabene at any of the doses,−2.2%
same,Mean Change FIBR,fibrinogen; gemcabene at any of the doses,−9.8
same,Mean Final FIBR,fibrinogen; gemcabene at any of the doses,434.1
same,reduction in plasma fibrinogen levels compared with control,"plasma fibrinogen; 30 mg/kg/day oral, 14 days",52%
same,reduction in plasma fibrinogen levels compared with control,"plasma fibrinogen; 100 mg/kg/day oral, 14 days (PD 72953)",57%
same,IC50,CYP3A4,> 1500 µM
same,IC50,"CYP3A4; human, microsomes",> 1500 µM
same,IC50,CYP2C19,> 1500 µM
same,IC50,"CYP2C19; human, microsomes",> 1500 µM
